Data from patent US11357779B2 (G1 Therapeutics, Inc., priority 2018, dated 2022).
Like-named read-outs stand apart in the source and are kept apart here.

Assay: Plasma concentration versus time of Compound I and metabolite Compound III in patients dosed QD or BID with Form B of Compound II plus fulvestrant
Assay type: in vivo, human
Conditions: for concentration at 0 h / concentration at 1 h / concentration at 2 h / concentration at 3 h / concentration at 4 h / concentration at 6 h / concentration at 8 h / concentration at 10 h / concentration at 12 h / concentration at 8 day / concentration at 15 day / concentration at 22 day: human, plasma, oral, 100 mg; for concentration at 1 h: Day 1, 1.0 h; for concentration at 2 h: Day 1, 2.0 h; for concentration at 3 h: Day 1, 3.0 h; for concentration at 4 h: Day 1, 4.0 h; for concentration at 6 h: Day 1, 6.0 h; for concentration at 8 h: Day 1, 8.0 h; for concentration at 10 h: Day 1, 10.0 h; for concentration at 12 h: Day 1, 12.0 h
Source text: Patients were enrolled into 1 of 2 parallel, independently operating, dose-escalation dosing cohorts with Form B of Compound II administered continuously either once daily (QD) or twice daily (BID) with food with fixed-dose fulvestrant (intramuscularly every 14 days for the first three injections and then every 28 days). Pre- or perimenopausal patients also received goserelin for the duration of study treatment. A […] agonist was started at least 28 days before the first dose of Form B, and those patients who were taking another LHRH agonist were switched to goserelin on Day 1. Patients were split into […] cohorts providing once a day (QD) dosing of 200 mg, 300 mg, 400 mg, 500 mg, or 650 mg of Form B, or twice a day (BID) dosing of 100 mg, 150 mg, or 200 mg of Form B. The second dose in BID cohorts was not administered in the evening until at least 12 hours after the initial morning dose of Form B. The dosing cohorts for Form B of Compound II are provided in Table 1.
Blood samples were collected at the following time points relative to the morning dose of Form B at Day 1 and at Day 29: pre-dose (0 hour) and 1, 2, 3, 4, 6, 8, 10, 12 (prior to the evening dose in the BID cohorts), and 24 (prior to the next day's morning dose) hours after dosing. A 5-minute time window was allowed for samples collected between the predose and 3 hours after Form B dosing. A 15-minute window was allowed for samples collected between 4 to 12 hours after Form B dosing. A 1-hour window was allowed for the sample collected 24 hours after Form B dosing. Blood samples for Compound I PK trough levels were collected pre-dose at Day 8, Day 15, and Day 22 prior to the morning administration of Compound I. Plasma concentrations of Compound I and its metabolite, Compound III, were measured using validated methods.
Analysis of plasma concentration versus time data for calculation of standard pharmacokinetic (PK) parameters following oral administration was conducted using Phoenix WinNonlin version 6.3 using actual blood sampling times.

[1] = Cohort 3, 400 mg QD of Form B, Day 8
[2] = Cohort 3, 400 mg QD of Form B, Day 15
[3] = Cohort 3, 400 mg QD of Form B, Day 22
[4] = Cohort 4, 500 mg QD of Form B, Day 8
[5] = Cohort 4, 500 mg QD of Form B, Day 15
[6] = Cohort 4, 500 mg QD of Form B, Day 22
[7] = Cohort 7, 150 mg BID of Form B, Day 29, 0.0 h
[8] = Cohort 7, 150 mg BID of Form B, Day 29, 1.0 h
[9] = Cohort 7, 150 mg BID of Form B, Day 29, 2.0 h
[10] = Cohort 7, 150 mg BID of Form B, Day 29, 3.0 h
[11] = Cohort 7, 150 mg BID of Form B, Day 29, 4.0 h
[12] = Cohort 7, 150 mg BID of Form B, Day 29, 6.0 h
[13] = Cohort 7, 150 mg BID of Form B, Day 29, 8.0 h
[14] = Cohort 7, 150 mg BID of Form B, Day 29, 10.0 h
[15] = Cohort 7, 150 mg BID of Form B, Day 29, 12.0 h
[16] = Cohort 8, 200 mg BID of Form B, Day 8
[17] = Cohort 8, 200 mg BID of Form B, Day 15
[18] = Cohort 8, 200 mg BID of Form B, Day 22
[19] = Cohort 8, 200 mg BID of Form B, Day 29, 0.0 h
[20] = Cohort 8, 200 mg BID of Form B, Day 29, 1.0 h
[21] = Cohort 8, 200 mg BID of Form B, Day 29, 2.0 h
[22] = Cohort 8, 200 mg BID of Form B, Day 29, 3.0 h
[23] = Cohort 8, 200 mg BID of Form B, Day 29, 4.0 h
[24] = 100 mg BID of Form B, Mean, read-out: Compound I Concentration
[25] = 100 mg BID of Form B, Median, read-out: Compound I Concentration

## CC(C)N1CCN(c2ccc(Nc3ncc4cc5n(c4n3)C3(CCCCC3)CNC5=O)nc2)CC1 [Compound I, 2′-((5-(4-isopropylpiperazin-1-yl)pyridin-2-yl)amino)-7′,8′-dihydro-6′H-spiro[cyclohexane-1,9′-pyrazino[1′,2′:1,5]pyrrolo[2,3-d]pyrimidin]-6′-one]
200 mg QD of Form B, Day 8, Mean
  Trough Compound I Concentration: 4.93 ng/mL
200 mg QD of Form B, Day 8, Median
  Trough Compound I Concentration: 4.22 ng/mL
200 mg QD of Form B, Day 15, Mean
  Trough Compound I Concentration: 5.56 ng/mL
200 mg QD of Form B, Day 15, Median
  Trough Compound I Concentration: 4.59 ng/mL
200 mg QD of Form B, Day 22, Mean
  Trough Compound I Concentration: 6.24 ng/mL
200 mg QD of Form B, Day 22, Median
  Trough Compound I Concentration: 5.32 ng/mL
300 mg QD of Form B, Day 8, Mean
  Trough Compound I Concentration: 14.0 ng/mL
300 mg QD of Form B, Day 8, Median
  Trough Compound I Concentration: 17.3 ng/mL
300 mg QD of Form B, Day 15, Mean
  Trough Compound I Concentration: 16.7 ng/mL
300 mg QD of Form B, Day 15, Median
  Trough Compound I Concentration: 19.9 ng/mL
300 mg QD of Form B, Day 22, Mean
  Trough Compound I Concentration: 16.4 ng/mL
300 mg QD of Form B, Day 22, Median
  Trough Compound I Concentration: 10.9 ng/mL
[1]
  Trough Compound I Concentration, Max: 6.85 ng/mL
  Trough Compound I Concentration, Mean: 5.63 ng/mL
  Trough Compound I Concentration, Median: 6.16 ng/mL
  Trough Compound I Concentration, Min: 3.87 ng/mL
[2]
  Trough Compound I Concentration, Max: 10.2 ng/mL
  Trough Compound I Concentration, Mean: 6.66 ng/mL
  Trough Compound I Concentration, Median: 5.33 ng/mL
  Trough Compound I Concentration, Min: 4.46 ng/mL
[3]
  Trough Compound I Concentration, Max: 11.7 ng/mL
  Trough Compound I Concentration, Mean: 9.34 ng/mL
  Trough Compound I Concentration, Median: 10.4 ng/mL
  Trough Compound I Concentration, Min: 5.91 ng/mL
[4]
  Trough Compound I Concentration, Mean: 17.1 ng/mL
  Trough Compound I Concentration, Min: 10.6 ng/mL
[5]
  Trough Compound I Concentration, Mean: 23.8 ng/mL
  Trough Compound I Concentration, Min: 14.5 ng/mL
[6]
  Trough Compound I Concentration, Mean: 19.8 ng/mL
  Trough Compound I Concentration, Min: 14.4 ng/mL
Cohort 7, 150 mg BID of Form B, Day 15
  Trough Compound I Concentration, Mean: 24.8 ng/mL
Cohort 7, 150 mg BID of Form B, Day 22
  Trough Compound I Concentration, Mean: 20.6 ng/mL
[7]
  Compound I Concentration, Mean: 26.2 ng/mL
  Compound I Concentration, Min: 9.03 ng/mL
[8]
  Compound I Concentration, Max: 57.0 ng/mL
  Compound I Concentration, Mean: 37.6 ng/mL
  Compound I Concentration, Min: 27.0 ng/mL
[9]
  Compound I Concentration, Max: 64.9 ng/mL
  Compound I Concentration, Mean: 41.3 ng/mL
  Compound I Concentration, Min: 24.6 ng/mL
[10]
  Compound I Concentration, Max: 76.6 ng/mL
  Compound I Concentration, Mean: 46.0 ng/mL
  Compound I Concentration, Min: 25.7 ng/mL
[11]
  Compound I Concentration, Max: 83.2 ng/mL
  Compound I Concentration, Mean: 50.2 ng/mL
  Compound I Concentration, Min: 30.5 ng/mL
[12]
  Compound I Concentration, Max: 67.2 ng/mL
  Compound I Concentration, Mean: 38.0 ng/mL
  Compound I Concentration, Min: 20.3 ng/mL
[13]
  Compound I Concentration, Max: 67.4 ng/mL
  Compound I Concentration, Mean: 36.7 ng/mL
  Compound I Concentration, Min: 15.8 ng/mL
[14]
  Compound I Concentration, Max: 59.7 ng/mL
  Compound I Concentration, Mean: 32.2 ng/mL
  Compound I Concentration, Min: 13.0 ng/mL
[15]
  Compound I Concentration, Max: 58.1 ng/mL
  Compound I Concentration, Mean: 28.5 ng/mL
  Compound I Concentration, Min: 10.2 ng/mL
[16]
  Trough Compound I Concentration, Max: 19.7 ng/mL
  Trough Compound I Concentration, Mean: 9.41 ng/mL
  Trough Compound I Concentration, Median: 6.82 ng/mL
  Trough Compound I Concentration, Min: 1.72 ng/mL
[17]
  Trough Compound I Concentration, Max: 16.3 ng/mL
  Trough Compound I Concentration, Mean: 11.0 ng/mL
  Trough Compound I Concentration, Median: 11.0 ng/mL
  Trough Compound I Concentration, Min: 5.71 ng/mL
[18]
  Trough Compound I Concentration, Max: 15.5 ng/mL
  Trough Compound I Concentration, Mean: 7.11 ng/mL
  Trough Compound I Concentration, Median: 5.83 ng/mL
  Trough Compound I Concentration, Min: 0.00 ng/mL
[19]
  Compound I Concentration, Max: 17.2 ng/mL
  Compound I Concentration, Median: 6.54 ng/mL
[20]
  Compound I Concentration, Max: 13.3 ng/mL
  Compound I Concentration, Median: 9.29 ng/mL
[21]
  Compound I Concentration, Max: 17.0 ng/mL
  Compound I Concentration, Median: 13.3 ng/mL
[22]
  Compound I Concentration, Max: 22.5 ng/mL
  Compound I Concentration, Median: 15.6 ng/mL
[23]
  Compound I Concentration, Max: 30.5 ng/mL
  Compound I Concentration, Median: 25.1 ng/mL
Cohort 8, 200 mg BID of Form B, Day 29, 6.0 h
  Compound I Concentration, Median: 21.1 ng/mL
Cohort 8, 200 mg BID of Form B, Day 29, 8.0 h
  Compound I Concentration, Median: 14.8 ng/mL
Cohort 8, 200 mg BID of Form B, Day 29, 10.0 h
  Compound I Concentration, Median: 11.7 ng/mL
Cohort 8, 200 mg BID of Form B, Day 29, 12.0 h
  Compound I Concentration, Median: 12.4 ng/mL
100 mg BID of Form B, Day 1, 0.0 h, Mean, read-out: Compound I Concentration
  concentration at 0 h: 0 ng/mL
100 mg BID of Form B, Day 1, 0.0 h, Median, read-out: Compound I Concentration
  concentration at 0 h: 0 ng/mL
[24]
  concentration at 1 h: 2.8 ng/mL
  concentration at 2 h: 6.21 ng/mL
  concentration at 3 h: 8.72 ng/mL
  concentration at 4 h: 8.98 ng/mL
  concentration at 6 h: 5.7 ng/mL
  concentration at 8 h: 4.07 ng/mL
  concentration at 10 h: 3.29 ng/mL
  concentration at 12 h: 2.93 ng/mL
[25]
  concentration at 1 h: 2.6 ng/mL
  concentration at 2 h: 5.71 ng/mL
  concentration at 3 h: 8.09 ng/mL
  concentration at 4 h: 7.47 ng/mL
  concentration at 6 h: 5.12 ng/mL
  concentration at 8 h: 3.71 ng/mL
  concentration at 10 h: 2.91 ng/mL
  concentration at 12 h: 2.2 ng/mL
Cohort 6, 100 mg BID of Form B, Day 8, read-out: Trough Compound I Concentration, Max
  concentration at 8 day: 23.7 ng/mL
Cohort 6, 100 mg BID of Form B, Day 8, read-out: Trough Compound I Concentration, Mean
  concentration at 8 day: 8.78 ng/mL
Cohort 6, 100 mg BID of Form B, Day 8, read-out: Trough Compound I Concentration, Median
  concentration at 8 day: 5.49 ng/mL
Cohort 6, 100 mg BID of Form B, Day 8, read-out: Trough Compound I Concentration, Min
  concentration at 8 day: 3.29 ng/mL
Cohort 6, 100 mg BID of Form B, Day 15, read-out: Trough Compound I Concentration, Max
  concentration at 15 day: 22 ng/mL
Cohort 6, 100 mg BID of Form B, Day 15, read-out: Trough Compound I Concentration, Mean
  concentration at 15 day: 8.92 ng/mL
Cohort 6, 100 mg BID of Form B, Day 15, read-out: Trough Compound I Concentration, Median
  concentration at 15 day: 6.34 ng/mL
Cohort 6, 100 mg BID of Form B, Day 15, read-out: Trough Compound I Concentration, Min
  concentration at 15 day: 3.31 ng/mL
Cohort 6, 100 mg BID of Form B, Day 22, read-out: Trough Compound I Concentration, Max
  concentration at 22 day: 10.9 ng/mL
Cohort 6, 100 mg BID of Form B, Day 22, read-out: Trough Compound I Concentration, Mean
  concentration at 22 day: 5.7 ng/mL
Cohort 6, 100 mg BID of Form B, Day 22, read-out: Trough Compound I Concentration, Median
  concentration at 22 day: 4.42 ng/mL
Cohort 6, 100 mg BID of Form B, Day 22, read-out: Trough Compound I Concentration, Min
  concentration at 22 day: 2.34 ng/mL
Cohort 6, 100 mg BID of Form B, Day 29, 0.0 h, read-out: Compound I Concentration, Max
  concentration at 0 h: 9.2 ng/mL
Cohort 6, 100 mg BID of Form B, Day 29, 0.0 h, read-out: Compound I Concentration, Mean
  concentration at 0 h: 4.35 ng/mL
